Publication PMC12285096, “Tirzepatide mitigates Stroke-Induced Blood-Brain barrier disruption by modulating Claudin-1 and C/EBP-α pathways” (Molecular Medicine, 2025)

How the values were obtained:
in vivo = details: mouse, ip, 10 nmol/kg
Protocol: TZP concentrations were measured in plasma and brain from Sham, TZP, MCAO, and MCAO + TZP groups (n = 6 per group) after 8 weeks of treatment (TZP: 10 nmol/kg, saline: 0.1 mL, i.p., weekly). At 24 h post-final dose, mice were anesthetized (xylazine 8 mg/kg, ketamine 140 mg/kg, i.p.). Plasma was collected via cardiac puncture (0.5 mL, heparinized tubes) and centrifuged (3,000 × g, 10 min, 4 °C). The right cerebral hemisphere was harvested, rinsed in cold saline, weighed, and homogenized in 1 mL PBS with 1% protease inhibitor. Homogenates were centrifuged (10,000 × g, 15 min, 4 °C). TZP was quantified by LC-MS/MS using a Shimadzu LC-20AD system and AB Sciex QTRAP 5500. Samples were diluted 1:10 in acetonitrile with internal standard (semaglutide-d6, 10 ng/mL), separated on a C18 column (2.1 × 100 mm, 1.8 μm), and detected via multiple reaction monitoring (MRM). Calibration curves (0.1–100 ng/mL, r² > 0.99) ensured linearity. Kp, brain was calculated as [TZP]brain (ng/mL, converted from ng/g)/[TZP]plasma (ng/mL). Sham and MCAO groups (no TZP) served as controls. Liraglutide’s Kp, brain was cited from the literature (Rhea et al. [2024]).

Claudin-1 = Claudin-1 expression in OGD/R-stimulated HBMVECs (real-time PCR, western blot); type: cell-based, human; details: for Claudin-1 expressions (mRNA): sh-C/EBP-α experiment, Fig. 9D
Protocol: 1 mL of RNAiso Plus solution was added to the pulverized rodent cerebral cortex samples or cellular material. Following complete homogenization, the liquid fraction was extracted after high-speed centrifugation. The overall RNA pellet was then washed with 75% ethanol, and the RNA was subsequently harvested for reverse transcription. These specific procedures were carried out in accordance with the instructions provided in the PrimeScript RT reagent Kit (TaKaRa, Japan). Real-time PCR detection was performed following the experimental protocols of the Applied Biosystems 7300 instrument. Gene expression levels were determined based on cycle threshold counts. Claudin-1 and C/EBP-α were analyzed in brain homogenates (right hemisphere: Sham, MCAO, MCAO + TZP) and HBMVECs (Control, […] lysis solution, composed of 1% protease inhibitor in RIPA buffer (Sigma-Aldrich, R0278), was introduced to samples, which were homogenized over ice for 30 min. The homogenate was centrifuged at 13,500 rpm for 10 min at 4 °C. Protein was quantified using the BCA assay kit (Sigma-Aldrich, BCA1), and 50 μg protein/lane was separated on 10% SDS-PAGE and transferred to PVDF in electrophoresis buffer at 200 mA for 2 h. The membrane was blocked with 5% skim milk in TBST for 1 h. Primary antibodies were incubated overnight at 4 °C: Claudin-1 (1:1000, Abcam, ab15098), C/EBP-α (1:1000, Santa Cruz Biotechnology, sc-166258), and GAPDH (1:2000, Sigma-Aldrich, A5441). HRP-conjugated secondary antibodies (1:5000, Santa Cruz, sc-2357) were incubated for 1 h. Bands were detected via ECL (Bio-Rad, 1705061), quantified with ImageJ, and normalized to GAPDH. HBMVECs were sourced from ATCC (USA). These cells were cultivated in a medium specifically designed for endothelial cultures, enriched with 10% FBS, and maintained in an incubator set at a temperature of 37 °C with 5% CO2. For OGD/R modeling, the culture medium was replaced with a serum-free, glucose-free medium, and then it was placed in a hypoxic environment (1% O2, 5% CO2, 94% N2) at a 37 °C incubator for 10 h. […]

SMILES: CC[C@H](C)[C@H](NC(=O)[C@H](CC(C)C)NC(=O)[C@H](Cc1c[nH]c2ccccc12)NC(=O)[C@H](CCC(N)=O)NC(=O)[C@@H](NC(=O)[C@H](Cc1ccccc1)NC(=O)[C@H](C)NC(=O)[C@H](CCCCNC(=O)COCCOCCNC(=O)COCCOCCNC(=O)CC[C@H](NC(=O)CCCCCCCCCCCCCCCCCCC(=O)O)C(=O)O)NC(=O)[C@H](CCC(N)=O)NC(=O)[C@H](C)NC(=O)[C@@H](NC(=O)[C@H](CCCCN)NC(=O)[C@H](CC(=O)O)NC(=O)[C@H](CC(C)C)NC(=O)C(C)(C)NC(=O)[C@@H](NC(=O)[C@H](CO)NC(=O)[C@H](Cc1ccc(O)cc1)NC(=O)[C@H](CC(=O)O)NC(=O)[C@H](CO)NC(=O)[C@@H](NC(=O)[C@H](Cc1ccccc1)NC(=O)[C@@H](NC(=O)CNC(=O)[C@H](CCC(=O)O)NC(=O)C(C)(C)NC(=O)[C@@H](N)Cc1ccc(O)cc1)[C@@H](C)O)[C@@H](C)O)[C@@H](C)CC)[C@@H](C)CC)C(C)C)C(=O)N[C@@H](C)C(=O)NCC(=O)NCC(=O)N1CCC[C@H]1C(=O)N[C@@H](CO)C(=O)N[C@@H](CO)C(=O)NCC(=O)N[C@@H](C)C(=O)N1CCC[C@H]1C(=O)N1CCC[C@H]1C(=O)N1CCC[C@H]1C(=O)N[C@@H](CO)C(N)=O [TZP, Tirzepatide]
- tissue level at time at 24 h (in vivo; Brain concentration of TZP): 9.6 ± 1.2 ng/g
- level at 24 h (in vivo; Plasma concentration of TZP): 80.2 ± 10.1 ng/mL
- Claudin-1 expressions (mRNA, protein) (Claudin-1; OGD/R + 50 and 100 nM TZP vs. OGD/R, Fig. 7A, B): notably enhanced
- Claudin-1 expressions (mRNA) (Claudin-1; OGD/R + TZP (100 nM) vs. OGD/R): remarkably elevated
- Claudin-1 expressions (mRNA) (Claudin-1; OGD/R + sh-C/EBP-α + TZP (100 nM) vs. OGD/R + TZP): strikingly restrained
